| SMILES | melting point |
| --- | --- |
| CC(=O)OCC1OC(n2ccnc2[N+](=O)[O-])CC1OC(C)=O (stereo not drawn) | 155 °C |
| CC(C)N1C(=O)c2ccccc2N(C(=O)C(C)(C)C)S1(=O)=O | 97.5 to 99.5 °C |
| COc1cc(-c2ccc(C(C)(C)C)s2)cc2oc(=O)c(C)c(C)c12 | 137 °C |
| CCCCOC(=O)C1=C(C)NC(C)=C(C(=O)OC)C1c1cccc([N+](=O)[O-])c1 (stereo not drawn) | 69 to 70 °C |
| CC1CCCN1CCN1C=c2ccc(=c3ccc4c(c3)CCN(C)C=4)cc2CC1 (stereo not drawn) | > 270 °C |
| Cc1cc(OCCN(C)C)c(C(C)C)cc1OC(=O)CCCC(=O)O | 109 to 110 °C |
| Cc1cc(=O)c(OCc2ccccc2)c(C(=O)NC2CCCCC2)n1C | 258 to 260 °C |
| CCOC(=O)C[C@@H]1C(=O)N(S(=O)(=O)c2ccc(OC)cc2)C=C[C@@H]1c1ccc(OC)cc1 | 107 to 110 °C |
| O=C(O)Cc1c(Cl)nc(-c2cc([N+](=O)[O-])c(Cl)c([N+](=O)[O-])c2)n1Cc1ccccc1 | 100 to 105 °C |
| O=C(O)Cc1c(C(=O)c2ccc3c(c2)OCCO3)[nH]c2cc(Cl)ccc12 | 233 °C |
| Cc1oc2c(C)c(C)c(NCc3ccc(F)cc3)c(C)c2c1-c1ccccc1 | 135 to 136 °C |
| CC(=O)NC(=S)c1nc2cc(Cl)c(Cl)cc2n1S(=O)(=O)N(C)C | 172 to 173 °C |
| CCCCCCCCCCCCCOc1ccc(CO)cc1 | 72 to 75 °C |
| CS(=O)(=O)Nc1cc(Cl)c(Cl)cc1Cl | 144 to 145 °C |
| COC(=O)c1ccc(Cn2cc(/C=C/C(=O)N3CCCC3)c3ccc(/C=C/C(=O)N4CCCC4)cc32)c(OC)c1 | 226 to 228 °C |
| CNCc1ccc2c(Br)c(OC)ccc2c1 | 41 to 45 °C |
| Nc1c(F)c(N2CCC(=NO)C2)c(F)c2c1c(=O)c(C(=O)O)cn2C1CC1 | 273 to 276 °C |
| CCOC(=O)c1ccc(-c2cc(O)c(C(CC(C)C)SC3CCCC3)c(=O)o2)cc1 (stereo not drawn) | 174 to 176 °C |
| CCCC(CCNC(=O)C(C#N)=Cc1cc(O)c(O)c(O)c1)NC(=O)C(C#N)=Cc1cc(O)c(O)c(O)c1 (stereo not drawn) | > 300 °C |
| COc1cc(C(O)c2c(O)c(=O)ccn2CCO)ccc1O (stereo not drawn) | 179 to 190 °C |
| CCOc1ccc2nc3cc(OC)c(=O)c(Cl)c-3sc2c1 | 236 to 239 °C |

| SMILES | melting point |
| --- | --- |
| O=[N+]([O-])c1ccc2sc(=Nc3ccccc3)sc2c1 | 136 to 138 °C |
| Cc1cc(C(=O)N(C)C)c(O)c([N+](=O)[O-])c1 | 160 to 162 °C |
| Cc1ccc(C(=O)NCCC(=O)OCc2ccccc2)c(NC(=O)C(CCCNC(=N)N[N+](=O)[O-])NC(=O)OCc2ccccc2)c1 (stereo not drawn) | 154 to 156 °C |
| CNC(=O)N1CC(Sc2ccc(Cl)cc2)C1 | 161 to 162 °C |
| O=c1[nH]c(=O)n(C2CC(O)C(CF)O2)cc1C=CBr (stereo not drawn) | 208 °C |
| CCCCCCN(C[C@@H]1CCCC[C@H]1CN(CCCCCC)C(=O)Nc1ccc(N(C)C)cc1)C(=O)Nc1ccc(N(C)C)cc1 (relative stereo) | 112 to 117 °C |
| CCCCCCCCCCCCCCCCCCOc1cc(OCCCCCc2cccc(O)c2O)cc(N(CC(=O)O)CC(=O)O)c1 | 129 to 131 °C |
| Cn1c(=O)c(-c2ccc(Cl)cc2Cl)cc2c3cc(-c4nc(CN5CCCC5)cs4)ccc3n(C)c21 | 222 to 226 °C |
| c1ccc(CN2CCC(CCc3noc4cc(N5CCOCC5)ccc34)CC2)cc1 | 129 to 130 °C |
| CC12CCC(C1)C1(C)Oc3ccc(C(=O)COc4ccc(C(=O)O)cc4)cc3C21C (stereo not drawn) | 188 °C |
| CC(C)CCOc1ccc(-c2c(Cl)c(CCl)nc3sc4c(c23)CCN(Cc2ccccc2)C4)cc1 | 149 to 150 °C |
| Cc1cc(C)c(S(=O)(=O)Nc2onc(C)c2Br)c(C)c1 | 92 to 95 °C |
| COc1c(C2CCN(CCCCNC(=O)c3c(C)nc(-c4ccc(Cl)cc4)n3C)CC2)ccc2c1CCCC2 | 150 °C |
| CC12CCC3c4ccc(C(=O)O)cc4CCC3C1CCC2C(=O)C1CCCCC1 (stereo not drawn) | 280 to 285 °C |
| OC1CCN(c2ccccc2)C12CCN(C1CC3CCCCCC3C1)CC2 (stereo not drawn) | 219 °C |
| CCc1c(C(=O)c2cc(C)cc(C)c2)n(CC=CC(=O)OC(C)C)c(=O)[nH]c1=O | 175 to 176 °C |
| Nc1c(F)c(N2CCC(c3ccncc3)C2)c(F)c2c1c(=O)c(C(=O)O)cn2C1CC1 (stereo not drawn) | 236 to 238 °C |
| CC(C)(C)c1ccc(C(=O)O)c(C(=O)O)c1 | 148 to 150 °C |
| COC(=O)c1nc2ccc(CO)cc2cc1C | 84.2 °C |
| CON1C=C2C=C(SC)N=C(Cl)N2N1 | 243 to 244 °C |
| NCCCc1ccc2c(n1)NCCC2 | 66 to 68.5 °C |

| SMILES | melting point |
| --- | --- |
| C=C(C)C(=O)NCCCC(=O)Nc1cc(Cl)c(C)c(Cl)c1O | 119 to 121 °C |
| O=C(NCCCCCCNC(=O)OC1CCCCC1)OC1CCCCC1 | 98 to 100 °C |
| CCOC(=O)CNC(=O)C1=C(C(=O)Nc2ccc(Cl)cc2F)CCCC1 | 170 °C |
| O=C(Nc1nc(C(Cl)(Cl)Cl)ns1)c1ccccc1Cl | 142 °C |
| O=C1NC(=O)C(CCCOc2ccc(F)cc2)S1 (stereo not drawn) | 119 to 121 °C |
| OCC1CCC2=C(Cc3ccccc32)C1CN1CCCCC1CO (stereo not drawn) | 151 to 159 °C |
| COc1ccc(Cc2cnc(-c3ccccc3)c(-c3ccccc3)n2)cc1 | 102 to 103 °C |
| COc1ccc2c(c1)CC(NCC(=O)O)CC2 (stereo not drawn) | 203 °C |
| CC(CNS(=O)(=O)C(C)C)c1ccc(NC(=O)CCl)cc1 (stereo not drawn) | 138 °C |
| CC(C)C1c2onc(-c3ccc(Cl)cc3)c2CCC1C(=O)O (stereo not drawn) | 180 to 182 °C |
| CN1C(=O)[C@@H](NC(=O)C(C)(C)C)N=C(c2ccccc2)c2ccccc21 | 85 to 94 °C |
| O=C(O)Cc1csc(NC(=O)C(CC2CCCC2)c2ccc(Cl)c(Cl)c2)n1 (stereo not drawn) | 100 to 102 °C |
| CN1Cc2c(C(=O)OC(C)(C)C)ncn2-c2ccc(F)cc2C1=O | 228 to 229 °C |
| CC(=O)c1c(-c2cc(C)cs2)sc(-c2ccncc2)c1C | 106 to 108 °C |
| COc1ccc(C2=NN(c3nc(-c4cccs4)ns3)C(=O)[C@H]3CC=CC[C@@H]23)cc1Cl (relative stereo) | 254 to 256 °C |
| O=P(O)(O)CCCCc1ccccc1 | 88 to 90 °C |
| COCC1CN=C(c2ccc(OCCCCCCCc3cc(C)no3)cc2)O1 (stereo not drawn) | 53 to 55 °C |
| COc1ccccc1OCC1(COc2ccccc2OC)NC(C(=O)O)CS1 (stereo not drawn) | 160 to 162 °C |
| COC(=O)COc1ccc2c(O)c(C(C)=O)ccc2c1 | 118 to 120 °C |
| CCn1c2ccccc2c2oc(C(=O)Cl)cc21 | 127 to 129 °C |

The remaining lines, values ahead:

| melting point | SMILES |
| --- | --- |
| 93 to 95 °C | CCCCc1nc(C(F)(F)F)c(C(=O)OCC)n1Cc1cccc2c1ccn2-c1ccccc1-c1nn[nH]n1 |
| 135 to 140 °C | O=C(O)c1ccc(OCCNC(=O)C2Cc3ccccc3N2S(=O)(=O)c2ccc(-c3cccc(C(F)(F)F)c3)cc2)c(Cl)c1 (stereo not drawn) |
| 238 °C | O=C(O)C1c2ccccc2N=C(N2CCCCC2)N1c1ccccc1 (stereo not drawn) |
| 99 to 100 °C | Nc1c(Cl)c(C(F)(F)F)nn1-c1c(Cl)cc(C(F)(F)F)cc1Cl |
| 70 to 71 °C | CCOC(=O)Cc1ccc(C(=O)c2ccc(C)cc2)n1C |
| 238 to 240 °C | O=c1c(Cl)c(Cl)cnn1-c1cc(-c2ccnc(Nc3cccc(Cl)c3)n2)ccn1 |
| 163 to 165 °C | CC(C)CC(=O)Nc1cccc(-c2ccnc3c(-c4cccc(C=O)c4)cnn23)c1 |
| 82.3 °C | Cc1c(C(F)(F)F)cnn(-c2cc(OCC3CC3)c(Cl)cc2F)c1=O |
| 243 to 245 °C | CS(=O)(=O)c1ccc(-c2[nH]c3ccc(F)cc3c2-c2ccccc2)cc1 |
| 233 °C | CCOc1ccc(-c2cc(C(F)(F)F)n3ncc(-c4ccncc4)c3n2)cc1C(F)(F)F |
| 273 to 274 °C | Cc1nnc(-c2sc(N3CCN(Cc4ccc(C(F)(F)F)cc4)C3=O)nc2C)[nH]1 |
| 65 °C | COc1cc(C(C)=NOCc2ccc3nonc3c2)ccc1F |
| 110 to 116 °C | COc1ccc(-c2nc(C)n(CCC(C)(C)NCC(O)c3ccc(O)c(CO)c3)n2)cc1 (stereo not drawn) |
| 276 to 277 °C | Cc1nc2ncc(C(=O)NCc3ccc(Cl)cc3)c(O)c2cc1I |
| 94 to 97 °C | O=C1c2cc(Cl)ccc2-c2ccccc2CN1CCBr |
| 150 °C | O=C(Nc1ccc(Cl)c(C(F)(F)F)c1)Oc1ccc2c(c1)CCCN2 |
| 154 to 155 °C | CC(=O)C1=C(C)N=C(c2ccccc2)NC1c1cccc([N+](=O)[O-])c1 (stereo not drawn) |
| 90 to 91 °C | Cn1nc(N)nc1NCCCOc1cccc(CNCc2ccccc2)c1 |

| melting point | SMILES |
| --- | --- |
| 358 to 359 °C | COc1ccc(-c2nc3ccc(C(=O)O)cc3[nH]2)cc1C12CC3CC(CC(C3)C1)C2 |
| 158 to 160 °C | O=C(Nc1ccc(-n2nc(C(F)(F)F)cc2C(F)(F)F)cc1)c1cccc(Br)c1 |
| 221 to 222 °C | Clc1ccc2[nH]c3c4c(Cl)cccc4nc-3cc2c1 |
| 143 to 145 °C | COc1cc(-c2ccccc2)c(OCC(=O)O)c(-c2ccccc2)c1 |
| 88 to 89 °C | CCOc1nn(-c2ccc(C(F)(F)F)cn2)cc1CCCOc1cccc(CCC(=O)O)c1 |
| 59 to 60.5 °C | N#CCc1ccccc1CCc1ccc(Br)cc1 |
| 200 to 203 °C | O=C(O)c1ccc(C(c2ccccc2)c2ccc(Cl)cc2)cn1 (stereo not drawn) |
| 139 to 140 °C | NC(=S)C(F)(F)C[C@H]1CN(c2ccc(C3C=CS(=O)(=O)CC3)cc2)C(=O)O1 (stereo partly drawn) |
| 175 °C | COc1ccccc1CNc1ccc2cc(Nc3nc(C)no3)ccc2n1 |
| 242 to 244 °C | S=c1c2c(c3cccnc3n1-c1ccccc1)OCC2 |
| 190 to 196 °C | COc1ccc2nc3ccc(C(=O)N(C)C)cn3c(=O)c2c1 |
| 219 to 220 °C | Cn1c2ccccc2c2nc3c(C=O)cccc3nc21 |
| 280 to 281 °C | CCOC(=O)c1nnc2ccc(NC(C)=O)cc2c1O |
| 176 °C | Nc1ccc(C(c2ccccc2F)n2ccnc2)cc1[N+](=O)[O-] (stereo not drawn) |
| 173 to 182 °C | CN1C(=O)C(NC(=O)Nc2cccc(Br)c2)N(C)C1=O (stereo not drawn) |
| 218 °C | CCn1nc(-c2ccc(F)cc2)c(C(C)=O)c(Nc2cccc3ncccc23)c1=O |
| 192 to 194 °C | O=C1Cc2c(cccc2-c2ccccc2)N1 |
| 250 to 253 °C | COc1ccccc1-c1ccc(C(=O)N2Cc3cccn3Cc3ccccc32)cc1 |
